Reference: patent US20030143645A1, “Quinone reductase 2 and aldehyde dehydrogenase as therapeutic targets” (priority 2001, published 2003)
pIC50: −log10 of the molar value.

Molecular target: T1, ALDH1 (Homo sapiens, UniProt P00352)
T1 construct: Purification of native ALDH1, QR2 and QR1; RBC extract was prepared as described above and applied to PQ-Sepharose; tissue Valley Biomedical (blood); host or cells: human red blood cells
T1 sequence (P00352 1-501): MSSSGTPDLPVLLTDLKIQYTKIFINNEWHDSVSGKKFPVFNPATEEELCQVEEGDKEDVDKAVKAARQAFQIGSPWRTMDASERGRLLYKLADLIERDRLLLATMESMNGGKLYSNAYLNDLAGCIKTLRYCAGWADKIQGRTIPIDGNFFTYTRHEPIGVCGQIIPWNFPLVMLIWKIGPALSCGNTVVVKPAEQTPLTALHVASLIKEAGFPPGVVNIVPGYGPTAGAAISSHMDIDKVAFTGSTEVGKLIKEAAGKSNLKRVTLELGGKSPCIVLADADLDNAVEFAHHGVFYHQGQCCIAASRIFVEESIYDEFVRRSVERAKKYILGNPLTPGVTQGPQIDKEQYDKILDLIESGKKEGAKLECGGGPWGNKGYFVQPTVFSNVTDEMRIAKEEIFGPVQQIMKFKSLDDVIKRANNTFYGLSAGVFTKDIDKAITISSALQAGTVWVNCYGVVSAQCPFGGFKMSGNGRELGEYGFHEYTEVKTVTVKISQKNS
Test: ALDH1 HPLC-based activity assay (Example 2)
Format: biochemical
Details: physiological concentrations of NAD+
Procedure: Purification of native ALDH1, QR2 and QR1. RBC extract was prepared as described above and applied to PQ-Sepharose equilibrated in buffer A. ALDH1 and QR2 were obtained by eluting the column with 5 mM b-NAD^+ and NMeH respectively. QR1 was purified from rabbit liver as previously described (Lind et al, Methods Enzymol. 186:287-301 (1990)). All enzymes were sequenced to confirm their identify and were >90% pure as judged by SDS-PAGE and silver staining.
ALDH1, QR2 and QR1 activity assays. ALDH1 activity was determined using an HPLC-based assay because of the co-absorbance of CQ and NADH at 340 nm. Reaction products were separated with a gradient of acetonitrile in 10 mM triethylamine acetic acid. CQ and NADH peaks were identified by their signature spectra using an online photodiode array detector. QR2 activity was assayed in triplicate with recombinant QR2 (at 96 ng/mL) by measuring the absorbance at 365 nm in a buffer containing 50 mM Tris-HCl, pH 8.5, 50 μM NMeH, 5-30 μM menadione, and 0.1% Triton X-100. […] QR2 K1 values were calculated using KinetAsyst II by fitting the experimental data to the equations of Cleland (Methods Enzymol. 63:103-138 (1979)). […] QR1 IC50 values were calculated using GraphPad Prism.
The quinolines inhibit ALDH1 and QR2. […] Because of the co-absorbance of NADH and CQ at 340 nm, an HPLC based assay was developed to determine the effects of CQ on ALDH1 activity.

pIC50: 3.30
Compound: CCN(CC)CCCC(C)Nc1ccnc2cc(Cl)ccc12 (stereo not shown) [CQ, chloroquine]
